Results on nine compounds are retold here after PubChem BioAssay (NCI).

SMILES strings stand for the structures. “And” between values parts separate entries of the source, which are not always exact repeats. Equal values may be shown once.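 Growth conditions: 96-well plates. Treatment: test compound, 48 hours, 5 concentrations. Analysis: linear interpolation between bracketing concentrations; unreached endpoints set to highest concentration. At the GI50, growth is halved. TGI marks complete inhibition of growth.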

Test systems include ACHN renal; LOX IMVI melanoma; SN12C renal; HOP-62 NSCLC; SK-OV-3 ovarian; A498 renal; SK-MEL-2 melanoma; COLO 205 colon; OVCAR-5 ovarian; SF-295 CNS.
Assay in all cases: NCI tumour cell line growth inhibition, 48 h

`CC1=NN(c2ccccc2)C(=O)C1N=Nc1ccc(S(N)(=O)=O)cc1` (stereo not drawn): the TGI in the test with ACHN renal, with LOX IMVI melanoma, in the test on SN12C renal, in the test with HOP-62 NSCLC, in the test on SK-OV-3 ovarian and with A498 renal was greater than 100 µM in each case. The TGI in the test on SK-MEL-2 melanoma, with COLO 205 colon, with OVCAR-5 ovarian and with SF-295 CNS was greater than 100 µM in each case.
In the case of `Nc1cc(-c2ccccc2)n(C(=O)Nc2ccc(Oc3ccccc3)cc2)n1`, the GI50 in the test on ACHN renal is 34.9 µM; with LOX IMVI melanoma, greater than 100 µM; in the test on SN12C renal, 80.3 µM; with HOP-62 NSCLC, 30.2 µM; in the test with SK-OV-3 ovarian, 68.9 µM; in the test with A498 renal, greater than 100 µM. Also, the GI50 in the test with SK-MEL-2 melanoma was greater than 100 µM; with COLO 205 colon, greater than 100 µM; with OVCAR-5 ovarian, 96.3 µM; with SF-295 CNS, 40200 nM. Moreover, the TGI with ACHN renal, with LOX IMVI melanoma, in the test with SN12C renal, in the test on HOP-62 NSCLC, in the test with SK-OV-3 ovarian and with A498 renal was greater than 100 µM throughout. Besides, the TGI with SK-MEL-2 melanoma, in the test on COLO 205 colon, in the test on OVCAR-5 ovarian and in the test with SF-295 CNS was greater than 100 µM throughout.
For `COc1cc2nncc(SCc3ccc(Cl)c(Cl)c3)c2cc1OC`, the TGI with ACHN renal, in the test with LOX IMVI melanoma, in the test on SN12C renal, with HOP-62 NSCLC, in the test with SK-OV-3 ovarian and with A498 renal was greater than 100 µM in each case. The TGI in the test on SK-MEL-2 melanoma, in the test with COLO 205 colon, with OVCAR-5 ovarian and in the test on SF-295 CNS was greater than 100 µM throughout.
Consider `c1ccc2c(CN3CCC(C4CCN(Cc5cccc6ccccc56)CC4)CC3)cccc2c1`, for which the TGI is greater than 100 µM with ACHN renal; 16.8 µM and 23.4 µM in the test with LOX IMVI melanoma; greater than 100 µM with SN12C renal; 21.4 µM and > 69.4 µM with HOP-62 NSCLC; 75.2 µM and > 100 µM in the test on SK-OV-3 ovarian; > 72.8 µM and 86 µM in the test on A498 renal. Moreover, the TGI in the test with SK-MEL-2 melanoma is 15.2 µM and 37.1 µM; in the test on COLO 205 colon, 3.39 µM and 3.65 µM; in the test with OVCAR-5 ovarian, greater than 100 µM; in the test on SF-295 CNS it was 19.4 µM and 14.2 µM. For the same compound, the GI50 is 4.33 µM and 10.2 µM with LOX IMVI melanoma; 7.34 µM in the test on A498 renal; 22.3 µM and > 100 µM in the test on OVCAR-5 ovarian.
Take `CC(=O)O[C@H]1CC[C@@]2(C)C(=C/C(=N\[N+](=O)[O-])[C@H]3C4CCC([C@H](C)CCCC(C)C)[C@@]4(C)CCC32)C1` (stereo partly drawn): the TGI in the test with ACHN renal, in the test with LOX IMVI melanoma, in the test on SN12C renal, with HOP-62 NSCLC, in the test on SK-OV-3 ovarian and in the test with A498 renal was greater than 100 µM throughout. Moreover, the TGI in the test on SK-MEL-2 melanoma, in the test with COLO 205 colon, in the test on OVCAR-5 ovarian and in the test on SF-295 CNS was greater than 100 µM throughout.
Take `O=C1COCCN1c1ccc(NCc2cn(C(=O)c3ccc(Cl)cc3)c3ccccc23)cc1`: the GI50 in the test on ACHN renal was 3.79 µM; in the test with LOX IMVI melanoma, 5.53 µM; in the test on SN12C renal, 4.96 µM; with HOP-62 NSCLC, 1.06 µM; in the test with SK-OV-3 ovarian, 2.27 µM; in the test on A498 renal it was 0.0306 µM. For the same compound, the GI50 was 2.19 µM in the test with SK-MEL-2 melanoma, 3.28 µM in the test on COLO 205 colon, 0.187 µM with OVCAR-5 ovarian and 1830 nM in the test with SF-295 CNS. Also, the TGI in the test on ACHN renal is 27.5 µM; in the test on LOX IMVI melanoma, 19.8 µM; in the test with SN12C renal, 69.3 µM; in the test on HOP-62 NSCLC it was greater than 100 µM; with SK-OV-3 ovarian, 92.1 µM; in the test with A498 renal, 0.142 µM. In addition, the TGI in the test on SK-MEL-2 melanoma worked out at 15.3 µM; in the test on COLO 205 colon, 21.8 µM; in the test on OVCAR-5 ovarian it was 0.622 µM; in the test with SF-295 CNS, 33.5 µM.
On to `Cn1ncnc1C1c2n[nH]c(=O)c3cc(F)cc(c23)NC1c1ccc(F)cc1` (stereo not drawn), for which the GI50 with ACHN renal was 29.4 µM; with LOX IMVI melanoma it was 6.63 µM; in the test on SN12C renal it was 4.43 µM; in the test with HOP-62 NSCLC, 7.79 µM; in the test on SK-OV-3 ovarian, greater than 42.7 µM; in the test with A498 renal it was 5 µM. In addition, the GI50 in the test with SK-MEL-2 melanoma was greater than 100 µM; in the test on COLO 205 colon it was greater than 100 µM; in the test on OVCAR-5 ovarian, greater than 100 µM; in the test with SF-295 CNS it was 1010 nM. The TGI in the test with ACHN renal was greater than 100 µM; with LOX IMVI melanoma it was greater than 100 µM; with SN12C renal, greater than 100 µM; in the test with HOP-62 NSCLC, greater than 100 µM; in the test on SK-OV-3 ovarian, greater than 100 µM; in the test on A498 renal, greater than 94.3 µM. Moreover, the TGI in the test with SK-MEL-2 melanoma, with COLO 205 colon, in the test on OVCAR-5 ovarian and with SF-295 CNS was greater than 100 µM in each case.
In the case of `CC1(C)N=C(Oc2ccccc2)n2nccc2N1`, the TGI with ACHN renal, with LOX IMVI melanoma, with SN12C renal, in the test with HOP-62 NSCLC, with SK-OV-3 ovarian and with A498 renal was greater than 100 µM throughout. For the same compound, the TGI in the test with SK-MEL-2 melanoma, in the test with COLO 205 colon, in the test with OVCAR-5 ovarian and with SF-295 CNS was greater than 100 µM in each case.
For `COC(=O)Nc1nc2ccc(S(=O)(=O)c3ccc(NC(=O)Nc4cc(C(F)(F)F)ccc4F)cc3)cc2[nH]1`, the GI50 with ACHN renal, with LOX IMVI melanoma, with SN12C renal, in the test with HOP-62 NSCLC, with SK-OV-3 ovarian and with A498 renal was greater than 25 µM each time. For the same compound, the GI50 in the test with SK-MEL-2 melanoma is greater than 25 µM; in the test on COLO 205 colon, greater than 25 µM; in the test on OVCAR-5 ovarian, greater than 25 µM; in the test with SF-295 CNS it was greater than 25000 nM. The TGI in the test on ACHN renal, in the test on LOX IMVI melanoma, in the test on SN12C renal, in the test with HOP-62 NSCLC, in the test on SK-OV-3 ovarian and in the test with A498 renal was greater than 25 µM each time. Moreover, the TGI in the test on SK-MEL-2 melanoma, with COLO 205 colon, with OVCAR-5 ovarian and in the test on SF-295 CNS was greater than 25 µM throughout.
